This note sets out measurements from ChEMBL document CHEMBL6083251, “"Pseudosubstrate Envelope"/Free Energy Perturbation-Guided Design and Mechanistic Investigations of Benzothiazole HIV Capsid Modulators with High Ligand Efficiency” (J Med Chem, 2024).

In general, pEC50 refers to the negative decadic logarithm of the EC50, by convention in mol/L. For orientation: half-life means the time in which the quantity being followed falls by half. Usually CC50 stands for the concentration giving 50% cytotoxicity. One may read the pKd as −log10 of the Kd, conventionally taken in molar units.

Each structure is given as a SMILES string. pEC50, pKd: −log10 of the molar value. Calls of active or inactive are those of the source. The calls are words filed in the database; no cut-off is given here.

Data set [1] concerns Human immunodeficiency virus 2. Put plainly: Anti-HIV activity against HIV-2 ROD infected in human MT-4 cells assessed as protection against virus-induced cytopathic effect incubated for 5 days by spectrophotometric based MTT assay. Format: functional, organism-based. The settings on record: Human immunodeficiency virus 2, ROD, MT4, 120 h.
The nature of data set [2]: Metabolic stability in human liver microsomes assessed as intrinsic clearance at 1 uM incubated for 60 mins by LC-MS/MS analysis. Format: ADME, Microsome. The settings on record: read-out: CLH.
Data set [3] concerns the target Structural capsid protein (Human immunodeficiency virus 1) (UniProt Q76129). Put plainly: Binding affinity to hexameric HIV-1 NL4.3 capsid protein assessed as dissociation rate (Koff) by SPR assay. The note with it: filed as modulator. On the technique in general: In SPR one partner is held on a chip, and binding of the other changes the refractive index at the surface.

Data set [4] has as its system Human immunodeficiency virus 1. Put plainly: Anti-HIV activity against wild type HIV-1 IIIB infected in human MT4 cells assessed as protection against virus-induced cytopathic effect incubated for 5 days by spectrophotometric based MTT assay. The format is functional, organism-based. The settings on record: Human immunodeficiency virus 1, IIIB, MT4, 120 h. (In general: Damage to the host cells serves as the signal in cytopathic effect assays.)

The test system of data set [5] is Human immunodeficiency virus 1. Put plainly: Anti-HIV activity against HIV-1 IIIB infected in human MT4 cells assessed as protection against virus-induced cytopathic effect incubated for 5 days by spectrophotometric based MTT assay. The note with it: Human immunodeficiency virus 1, IIIB, MT4, 120 h.
Data set [6] can be described thus: Metabolic stability in human liver microsomes assessed as half life at 1 uM incubated for 60 mins by LC-MS/MS analysis. Format: ADME, Microsome.
The test system of data set [7] is MT4. Description: Cytotoxicity against human MT4 cells assessed as reduction in cell viability incubated for 5 days by spectrophotometric based MTT assay. The format is functional. The settings on record: MT4, 120 h, time 5 day.
In data set [8] the target is Structural capsid protein (Human immunodeficiency virus 1) (UniProt Q76129). Description: Binding affinity to monomeric HIV-1 NL4.3 capsid protein assessed as dissociation rate (Koff) by SPR assay. The note with it: filed as modulator.
Sequence of Structural capsid protein (Human immunodeficiency virus 1) (Q76129 as listed by the source): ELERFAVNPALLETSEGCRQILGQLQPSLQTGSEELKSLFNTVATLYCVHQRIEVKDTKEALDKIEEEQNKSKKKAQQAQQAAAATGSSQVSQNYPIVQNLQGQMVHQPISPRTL
Data set [9] shares this target. Put plainly: Binding affinity to monomeric HIV-1 NL4.3 capsid protein assessed as residence time by SPR assay. The note with it: filed as modulator.
The target is the same in data set [10]. Description: Binding affinity to hexameric HIV-1 NL4.3 capsid protein assessed as residence time by SPR assay. The note with it: filed as modulator.
The nature of data set [11]: Selectivity index, ratio of CC50 for human MT4 cells to EC50 for HIV-2 ROD infected in human MT-4 cells. Format: toxicity, cell-based. The settings on record: read-out: Selectivity Index.
Data set [12] has as its system Human immunodeficiency virus 1. Put plainly: Antiviral activity against pseudotyped HIV-1 expressing luciferase-reporter transfected in HEK293T cells assessed as increase in p24 level in progeny virions by ELISA analysis. Format: functional, organism-based. A general note: An ELISA detects its analyte on a solid surface through an enzyme-linked reagent.
Data set [13] in a line: Selectivity index, ratio of CC50 for human MT4 cells to EC50 for wild type HIV-1 IIIB infected in human MT4 cells. The note with it: read-out: Selectivity Index. The format is toxicity, cell-based.
The nature of data set [14]: Selectivity ratio of EC50 for wild type HIV-1 IIIB infected in human MT4 cells to EC50 for HIV-2 ROD infected in human MT-4 cells assessed as protection against virus-induced cytopathic effect incubated for 5 days by spectrophotometric based MTT assay. Format: functional. The note with it: time 5 day.
Data set [15] concerns the target Structural capsid protein (Human immunodeficiency virus 1) (UniProt Q76129). Put plainly: Binding affinity to HIV-1 hexameric capsid protein assessed as reduction in CPSF6 binding to capsid protein by competition assay based SPR analysis. The settings on record: filed as modulator.
Data set [16] has as its target T1, Structural capsid protein (Human immunodeficiency virus 1, UniProt Q76129). Description: Binding affinity to monomeric HIV-1 NL4.3 capsid protein assessed as dissociation constant by SPR assay.
Data set [17] concerns the target Structural capsid protein (Human immunodeficiency virus 1) (UniProt Q76129). Put plainly: Binding affinity to HIV-1 hexameric capsid protein assessed as reduction in NUP153 binding to capsid protein by competition assay based SPR analysis. The settings on record: filed as modulator.
In data set [18] the target is Human immunodeficiency virus type 1 reverse transcriptase (Human immunodeficiency virus 1) (UniProt Q72547). Put plainly: Inhibition of HIV1 reverse transcriptase at 24 nM incubated for 1 hr by ELISA analysis.
The test system of data set [19] is Human immunodeficiency virus 1. Put plainly: Antiviral activity against pseudotyped HIV-1 expressing luciferase-reporter transfected in HEK293T cells assessed as viral inhibition at late stage incubated for 48 hrs by Single-round infection assay. The format is functional, organism-based.
Data set [20] has as its target T1, Structural capsid protein. Put plainly: Binding affinity to hexameric HIV-1 NL4.3 capsid protein assessed as dissociation constant by SPR assay.
Data set [21] concerns Human immunodeficiency virus 1. Description: Antiviral activity against pseudotyped HIV-1 expressing luciferase-reporter transfected in HEK293T cells assessed as viral inhibition at early stage incubated for 48 hrs by Single-round infection assay. Format: functional, organism-based.
The target in data set [22] is Human immunodeficiency virus type 1 reverse transcriptase (Human immunodeficiency virus 1) (UniProt Q72547). The settings on record: dose 10.0 nM, time 1.0 hrs.
Data set [23] shares this target. Description: Inhibition of HIV1 reverse transcriptase at 20 nM incubated for 1 hr by ELISA analysis.
For data set [24] the target is unchanged. Description: Inhibition of HIV1 reverse transcriptase at 13 nM incubated for 1 hr by ELISA analysis.

T1 sequence (Q76129 whole entry): as the sequence (Q76129 as listed by the source) above

On to `Cc1[nH]c2ccccc2c1CC(=O)N[C@@H](Cc1ccccc1)C(=O)N(C)c1ccccc1`, for which the pEC50 was 5.55 in data set [1], 5.98 in [4] and 6.10 in data set [5]. The CLint scaled at 1 µM in [2] turned out to be 2110 mL/min/kg. Also, the K in [3] is 4.48 10^-1/s; in data set [8], 2.21 10^-1/s. In data set [6], the half-life at 1 µM stood at 0.7 min. For the same compound, the CC50 in [7] turned out to be 134000 nM. The figures for the TIME in data set [9] and in [10] were 0.00125 h and 0.000617 h, respectively.
As to `CN(C(=O)[C@H](Cc1cc(F)cc(F)c1)NC(=O)Cc1c[nH]c2ccc(N)cc12)c1ccc2scnc2c1`, the pEC50 was 6.64 in [1] and 7.92 in data set [4]. Besides, the CLint scaled at 1 µM in data set [2] was determined as 20.2 mL/min/kg. Also, the selectivity ratio worked out at 831 in data set [11] and 16100 in data set [13]. The outcome in data set [12] was inactive. In addition, the “Ratio EC50” value in data set [14] was 0.05. In data set [6], the half-life at 1 µM amounted to 68.5 min. Further, the CC50 in data set [7] worked out at 192000 nM. In addition, the result in [15], in data set [17], in data set [19] and in data set [21] was Active. Further, the pKd was 6.71 in data set [16] and 7.02 in data set [20]. The inhibition entry in [18] is “inactive”.
For `Cc1cc(/C=C/C#N)cc(C)c1Nc1ccnc(Nc2ccc(C#N)cc2)n1`, the inhibition result in data set [22] was “Active”.
Take `CN(C(=O)[C@H](Cc1cc(F)cc(F)c1)NC(=O)Cc1c[nH]c2cc(F)c(F)cc12)c1ccc2scnc2c1`: the pEC50 in data set [1] is 6.69; in data set [4], 8.01. Moreover, the selectivity ratio in data set [11] was 116; in data set [13] it was 2410. For the same compound, the result in data set [12], in data set [15], in data set [17], in [19] and in data set [21] was Active. Also, the inhibition result in data set [23] is “inactive”. The “Ratio EC50” value in data set [14] came to 0.05. Moreover, the CC50 in [7] turned out to be 23600 nM. Besides, the pKd in [16] was 6.57; in [20] it was 6.52.
Regarding `CN(C(=O)[C@H](Cc1cc(F)cc(F)c1)NC(=O)Cc1c[nH]c2ccc([N+](=O)[O-])cc12)c1ccc2scnc2c1`, the pEC50 is 6.89 in [1] and 8.20 in data set [4]. Also, the selectivity ratio in data set [11] amounted to 220; in [13], 4460. For the same compound, the outcome in [12], in [15], in data set [17], in data set [19] and in [21] was Active. Besides, in [24], the inhibition entry is “inactive”. The “Ratio EC50” value in [14] stood at 0.05. Also, in [7], the CC50 worked out at 28400 nM. In addition, the results for the pKd in [16] and in data set [20] were 6.82 and 7.06, respectively.
